The supplement of paper PMC10307832

What was measured:
Test in all cases: relative viability (nuclei count vs DMSO), 5 days (fraction); higher = more cells survive
KIN001-266 + AZD7762 = compound: CCN1CCC(CC1)N2C=C(N=N2)CNC3=CC4=C(C(=CN=C4C(=C3)Cl)C#N)NC5=CC(=C(C=C5)F)Cl [KIN001-266] + NC(=O)Nc1cc(-c2cccc(F)c2)sc1C(=O)N[C@H]1CCCNC1 [AZD7762] (partner 0.2 µM)
How it was run: (§1)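 Relative viability equals treated-well nuclei counts divided by vehicle-well nuclei counts. Counts came from 4× images of lung cancer cell lines grown in 1536-well plates for 5 days after pin-tool dosing on the day after seeding. Dosing used one drug alone or a fixed anchor-drug dose plus five library-drug doses (not always all listed) in √10 steps, and values are medians of duplicate plates.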

KIN001-266 + Phenformin = compound: CCN1CCC(CC1)N2C=C(N=N2)CNC3=CC4=C(C(=CN=C4C(=C3)Cl)C#N)NC5=CC(=C(C=C5)F)Cl [KIN001-266] + N=C(N)NC(=N)NCCc1ccccc1 [Phenformin] (partner 250 µM)
How it was run: as §1

KIN001-266 + Alpelisib = compound: CCN1CCC(CC1)N2C=C(N=N2)CNC3=CC4=C(C(=CN=C4C(=C3)Cl)C#N)NC5=CC(=C(C=C5)F)Cl [KIN001-266] + Cc1nc(NC(=O)N2CCC[C@H]2C(N)=O)sc1-c1ccnc(C(C)(C)C(F)(F)F)c1 [Alpelisib] (partner 2 µM)
How it was run: as §1

KIN001-266 + Pictilisib = compound: CCN1CCC(CC1)N2C=C(N=N2)CNC3=CC4=C(C(=CN=C4C(=C3)Cl)C#N)NC5=CC(=C(C=C5)F)Cl [KIN001-266] + CS(=O)(=O)N1CCN(Cc2cc3nc(-c4cccc5[nH]ncc45)nc(N4CCOCC4)c3s2)CC1 [Pictilisib] (partner 1 µM)
How it was run: as §1

| Cell Line | relative viability (KIN001-266 + AZD7762; first compound 0.08 µM) | relative viability (KIN001-266 + AZD7762; first compound 0.253 µM) | relative viability (KIN001-266 + AZD7762; first compound 0.8 µM) | relative viability (KIN001-266 + AZD7762; first compound 2.53 µM) | relative viability (KIN001-266 + AZD7762; first compound 8 µM) | relative viability (KIN001-266 + Phenformin; first compound 0.08 µM) | relative viability (KIN001-266 + Phenformin; first compound 0.253 µM) | relative viability (KIN001-266 + Phenformin; first compound 0.8 µM) | relative viability (KIN001-266 + Phenformin; first compound 2.53 µM) | relative viability (KIN001-266 + Phenformin; first compound 8 µM) | relative viability (KIN001-266 + Alpelisib; first compound 0.08 µM) | relative viability (KIN001-266 + Alpelisib; first compound 0.253 µM) | relative viability (KIN001-266 + Alpelisib; first compound 0.8 µM) | relative viability (KIN001-266 + Alpelisib; first compound 2.53 µM) | relative viability (KIN001-266 + Alpelisib; first compound 8 µM) | relative viability (KIN001-266 + Pictilisib; first compound 0.08 µM) | relative viability (KIN001-266 + Pictilisib; first compound 0.253 µM) | relative viability (KIN001-266 + Pictilisib; first compound 0.8 µM) | relative viability (KIN001-266 + Pictilisib; first compound 2.53 µM) | relative viability (KIN001-266 + Pictilisib; first compound 8 µM) |
| --- | --- | --- | --- | --- | --- | --- | --- | --- | --- | --- | --- | --- | --- | --- | --- | --- | --- | --- | --- | --- |
| 201T | 0.66 | 0.629 | 0.577 | 0.54 | 0.681 | 0.449 | 0.45 | 0.386 | 0.457 | 0.434 | 1.03 | 1 | 1.02 | 1.05 | 1.01 | 0.768 | 0.746 | 0.662 | 0.64 | 0.721 |
| A-427 | 0.722 | 0.697 | 0.761 | 0.644 | 0.599 | 0.357 | 0.307 | 0.289 | 0.275 | 0.247 | 1.12 | 1.05 | 1.04 | 1.02 | 0.998 | 0.778 | 0.735 | 0.582 | 0.72 | 0.754 |
| ABC-1 | 0.991 | 0.856 | 0.745 | 0.761 | 0.837 | 0.255 | 0.241 | 0.283 | 0.251 | 0.312 | 1.23 | 1.08 | 1.09 | 0.812 | 0.976 | 0.864 | 0.927 | 0.926 | 0.65 | 0.547 |
| BEN | 0.729 | 0.705 | 0.676 | 0.539 | 0.709 | 0.262 | 0.262 | 0.275 | 0.259 | 0.231 | 0.841 | 1.08 | 1.03 | 0.997 | 0.916 | 0.632 | 0.615 | 0.589 | 0.54 | 0.632 |
| CAL-12T | 0.633 | 0.639 | 0.574 | 0.642 | 0.606 | 0.571 | 0.545 | 0.515 | 0.568 | 0.534 | 1.43 | 1.39 | 1.11 | 1.3 | 1.02 | 0.698 | 0.539 |  | 0.31 | 0.47 |
| COR-L23 |  |  |  |  |  | 0.439 | 0.452 | 0.452 | 0.455 | 0.368 | 0.735 | 0.804 | 0.814 | 0.736 | 0.404 | 0.88 | 0.749 | 0.697 | 0.649 | 0.478 |
| COR-L 105 |  |  |  |  |  | 0.48 | 0.641 | 0.534 | 0.641 | 0.431 | 1.15 | 0.859 | 1.14 | 0.9 | 0.896 | 0.422 | 0.44 | 0.352 | 0.452 | 0.43 |
| Calu-6 |  |  |  |  |  |  |  |  |  |  | 1.16 | 0.915 | 1.1 | 0.915 | 0.86 | 0.933 | 0.9 | 1.08 | 0.805 | 0.765 |
| ChaGo-K-1 | 0.858 | 0.924 | 0.856 | 0.811 | 0.585 | 0.508 | 0.505 | 0.473 | 0.48 | 0.454 |  |  |  |  |  | 1.04 | 0.852 |  | 0.844 | 0.703 |
| EBC-1 |  |  |  |  |  |  |  |  |  |  | 0.929 | 0.879 | 0.822 | 0.843 | 0.629 | 0.416 | 0.519 | 0.553 | 0.576 | 0.329 |
| EKVX | 0.706 | 0.824 | 0.728 | 0.667 | 0.657 | 0.234 | 0.237 | 0.2 | 0.243 | 0.225 | 0.871 | 0.817 | 0.83 | 0.807 | 0.877 | 0.386 | 0.417 | 0.425 | 0.405 | 0.4 |
| EMC-BAC-2 | 1.17 | 1.18 | 1.15 | 1.16 | 1.21 | 0.56 | 0.516 | 0.482 | 0.54 | 0.475 | 0.718 | 0.751 | 0.749 | 0.743 | 0.733 | 0.551 | 0.55 | 0.505 | 0.523 | 0.513 |
| EPLC-272H | 0.304 | 0.212 | 0.191 | 0.185 | 0.371 | 0.334 | 0.317 | 0.274 | 0.234 | 0.239 | 1.05 | 0.874 | 0.938 | 0.842 | 0.74 | 0.349 | 0.336 | 0.305 | 0.265 | 0.289 |
| H3255 | 0.846 | 0.731 | 0.792 | 0.908 | 0.8 | 0.356 | 0.373 | 0.353 | 0.353 | 0.345 | 0.685 | 0.737 | 0.756 | 0.785 | 0.475 | 0.523 | 0.518 | 0.49 | 0.516 | 0.341 |
| HARA | 0.306 | 0.369 | 0.364 | 0.233 | 0.261 | 0.455 | 0.483 | 0.433 | 0.457 | 0.295 | 0.771 | 0.77 | 0.835 | 0.847 | 0.59 | 0.515 | 0.466 | 0.507 | 0.444 | 0.291 |
| HCC-15 | 1.23 | 1.14 | 1.18 | 0.6 | 1.06 | 0.48 | 0.472 | 0.421 | 0.43 | 0.34 | 0.867 | 0.849 | 0.766 | 0.781 | 0.586 | 0.769 | 0.765 | 0.594 | 0.674 | 0.472 |
| HCC-44 | 1.04 | 1.01 | 0.989 | 0.969 | 1.05 | 0.229 | 0.185 | 0.197 | 0.26 | 0.3 | 0.806 | 0.838 | 0.805 | 0.868 | 0.651 | 0.657 | 1.76 | 0.593 | 0.636 | 0.57 |
| HCC-78 | 0.654 | 0.603 | 0.469 | 0.619 | 0.694 | 0.714 | 0.664 |  | 0.656 | 0.806 | 0.302 | 0.346 | 0.377 | 0.46 | 0.411 | 0.234 | 0.193 | 0.174 | 0.253 | 0.259 |
